Measurements from US20230113037A1 (Bayer Aktiengesellschaft, priority 2019, published 2023).
Like-named read-outs stand apart in the source and are kept apart here.

Columns and labels:
AHR [1] = molecular target: T1, AHR (Homo sapiens, UniProt P35869); test: In vitro assay 1: antagonism in human cell line (AHR transactivation, firefly luciferase reporter, kynurenic acid prestimulated); type: cell-based; conditions: AHR Antagonism Human IC50 [M]
T1 construct: U87 MG glioblastoma cells (ATCC #HTB-14) endogenously expressing AHR; endogenous in cells; host or cells: U87 MG glioblastoma cells (ATCC #HTB-14)
T1 sequence (P35869 11-848): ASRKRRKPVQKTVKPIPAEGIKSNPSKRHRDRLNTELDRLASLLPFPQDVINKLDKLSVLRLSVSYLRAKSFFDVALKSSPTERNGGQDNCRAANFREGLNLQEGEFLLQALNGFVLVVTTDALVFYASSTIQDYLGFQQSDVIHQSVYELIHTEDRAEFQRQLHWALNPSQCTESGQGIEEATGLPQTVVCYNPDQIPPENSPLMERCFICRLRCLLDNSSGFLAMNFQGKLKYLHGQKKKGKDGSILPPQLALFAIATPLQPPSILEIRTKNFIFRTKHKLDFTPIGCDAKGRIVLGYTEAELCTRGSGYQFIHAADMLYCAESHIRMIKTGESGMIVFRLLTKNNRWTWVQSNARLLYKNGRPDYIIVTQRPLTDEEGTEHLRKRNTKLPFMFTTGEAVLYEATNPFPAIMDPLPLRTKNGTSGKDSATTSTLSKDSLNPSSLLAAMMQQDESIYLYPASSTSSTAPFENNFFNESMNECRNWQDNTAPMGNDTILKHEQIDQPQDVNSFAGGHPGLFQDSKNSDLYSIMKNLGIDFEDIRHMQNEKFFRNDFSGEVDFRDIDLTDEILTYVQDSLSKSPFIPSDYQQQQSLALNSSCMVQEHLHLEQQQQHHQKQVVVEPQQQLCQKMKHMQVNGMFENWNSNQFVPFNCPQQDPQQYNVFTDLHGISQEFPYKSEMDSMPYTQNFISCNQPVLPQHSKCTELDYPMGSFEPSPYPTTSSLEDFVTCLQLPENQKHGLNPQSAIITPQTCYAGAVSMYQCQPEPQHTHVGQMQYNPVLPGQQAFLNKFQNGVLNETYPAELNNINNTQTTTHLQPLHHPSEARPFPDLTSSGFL
How it was run: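 Antagonism measured as loss of kynurenic acid-driven firefly luciferase from DRE reporter in stably transfected U87 MG cells; constitutive Renilla signal monitors cytotoxicity. Positive/negative control normalization, staurosporine 5 μM with 150 μM kynurenic acid as inhibition control; replicates given as mean or median.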

AHR [2] = molecular target: T2, AHR (Mus musculus, UniProt P30561); test: In vitro assay 3: antagonism in mouse cell line (AHR transactivation, firefly luciferase reporter, kynurenic acid prestimulated); type: cell-based
T2 sequence (P30561 1-848 P471L/N533S/M589L): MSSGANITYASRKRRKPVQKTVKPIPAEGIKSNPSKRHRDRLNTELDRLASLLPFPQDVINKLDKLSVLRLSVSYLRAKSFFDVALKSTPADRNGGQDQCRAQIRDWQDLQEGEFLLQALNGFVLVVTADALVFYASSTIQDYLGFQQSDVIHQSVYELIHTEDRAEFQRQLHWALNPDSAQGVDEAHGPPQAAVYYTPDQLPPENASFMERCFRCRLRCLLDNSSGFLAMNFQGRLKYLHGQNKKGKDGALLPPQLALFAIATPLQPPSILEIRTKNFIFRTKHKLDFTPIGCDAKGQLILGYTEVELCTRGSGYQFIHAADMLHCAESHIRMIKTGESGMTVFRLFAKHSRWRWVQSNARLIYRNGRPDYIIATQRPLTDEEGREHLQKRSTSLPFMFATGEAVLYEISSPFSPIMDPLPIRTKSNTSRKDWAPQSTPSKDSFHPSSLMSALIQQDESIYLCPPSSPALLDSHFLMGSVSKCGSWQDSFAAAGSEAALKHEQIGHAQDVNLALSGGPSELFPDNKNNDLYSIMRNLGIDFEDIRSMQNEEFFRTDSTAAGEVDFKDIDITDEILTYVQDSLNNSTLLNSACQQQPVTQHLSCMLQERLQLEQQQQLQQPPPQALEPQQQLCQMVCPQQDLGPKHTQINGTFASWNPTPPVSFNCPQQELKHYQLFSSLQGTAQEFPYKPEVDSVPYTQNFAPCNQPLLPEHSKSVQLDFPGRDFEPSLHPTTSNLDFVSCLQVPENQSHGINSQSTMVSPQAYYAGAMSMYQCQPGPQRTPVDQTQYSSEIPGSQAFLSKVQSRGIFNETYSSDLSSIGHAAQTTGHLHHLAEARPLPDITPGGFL
How it was run: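 Antagonism read as reduced firefly luciferase signal (SteadyGlo) from a stably transfected AHR/DRE reporter in a mouse line prestimulated with kynurenic acid. Data normalized to controls, the full-inhibition control being cells without kynurenic acid; multiple determinations given as average or median values.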

[3] = Hepa 1c1c7 cells, 200 μM kynurenic acid, 20 hours, firefly luciferase reporter, read-out: AHR Antagonism Mouse IC50
[4] = mouse Hepa 1c1c7 cells, 200 μM kynurenic acid, 20 hours, read-out: AHR Antagonism Mouse IC50

SMILES | IC50 (AHR [1]; firefly luciferase reporter) [M] | IC50 (AHR [2]; [3]) [nM] | IC50 (AHR [1]) [M] | IC50 (AHR [2]; [4]) [nM] | IC50 (AHR [2]; read-out: AHR Antagonism Mouse IC50, mouse Hepa 1c1c7 cells, 200 μM kynurenic acid, 20 hours) [nM]
C[C@@H](Nc1nc2c(Br)cccc2c2nc(-c3cnn(C)c3)nn12)C(=O)NCCN(C)C(=O)OC(C)(C)C [Example 888, tert-butyl [2-({N-[7-bromo-2-(1-methyl-1H-pyrazol-4-yl)[1,2,4]triazolo[1,5-c]quinazolin-5-yl]-D-alanyl}amino)ethyl]methylcarbamate] | 1.73e-08 | 24.8 | – | – | –
COc1ccc(-c2nc3c4cccc(Br)c4nc(N[C@H](C)C(=O)N4CCN(C(=O)OC(C)(C)C)CC4)n3n2)cc1 [Example 883, tert-butyl 4-{N-[7-bromo-2-(4-methoxyphenyl)[1,2,4]triazolo[1,5-c]quinazolin-5-yl]-D-alanyl}piperazine-1-carboxylate] | 5.84e-09 | 7.79 | – | – | –
Cc1cccc2c1nc(N[C@@H]1CNCCNC1=O)n1nc(-c3cnn(C)c3)nc21 [Example 271, (6R)-6-{[7-methyl-2-(1-methyl-1H-pyrazol-4-yl)[1,2,4]triazolo[1,5-c]quinazolin-5-yl]amino}-1,4-diazepan-5-one] | – | – | 7.02e-07 | 13900 | –
O=C1NCCNCC1Nc1nc2cccc(C3CC3)c2c2nc(-c3cccc(F)c3)nn12 (stereo not drawn) [Example 295, 6-{[10-cyclopropyl-2-(3-fluorophenyl)[1,2,4]triazolo[1,5-c]quinazolin-5-yl]amino}-1,4-diazepan-5-one] | – | – | > 2e-05 | 2910 | –
O=C1NCCCC[C@H]1Nc1nc2ccccc2c2nc(-c3c[nH]nc3C(F)(F)F)nn12 [Example 604, (3R)-3-({2-[3-(trifluoromethyl)-1H-pyrazol-4-yl][1,2,4]triazolo[1,5-c]quinazolin-5-yl}amino)azepan-2-one] | – | – | 1.33e-07 | 347 | –
CCCCNC(=O)[C@@H](C)Nc1nc2c(C(F)(F)F)cccc2c2nc(-c3cnn(C)c3)nn12 [Example 751, N-butyl-N^2-[2-(1-methyl-1H-pyrazol-4-yl)-7-(trifluoromethyl)[1,2,4]triazolo[1,5-c]quinazolin-5-yl]-D-alaninamid] | – | – | 1.47e-08 | 54.7 | –
O=C1NCCNC[C@H]1Nc1nc2c(Br)cccc2c2nc(-c3cnn(C(F)F)c3)nn12 [Example 978, (6R)-6-({7-bromo-2-[1-(difluoromethyl)-1H-pyrazol-4-yl][1,2,4]triazolo[1,5-c]quinazolin-5-yl}amino)-1,4-diazepan-5-one] | 2.03e-09 | 1.34 | – | – | –
CC[C@@H](Nc1nc2ccccc2c2nc(-c3ccc(OC)cc3C(F)(F)F)nn12)C(N)=O [Example 515, (2R)-2-({2-[4-methoxy-2-(trifluoromethyl)phenyl][1,2,4]triazolo[1,5-c]quinazolin-5-yl}amino)butanamide] | – | – | 3.17e-08 | 2.06 | –
COc1cccc(-c2nc3c4ccccc4nc(N[C@H](CO)C(N)=O)n3n2)c1 [Example 79, N^2-[2-(3-methoxyphenyl)[1,2,4]triazolo[1,5-c]quinazolin-5-yl]-D-serinamide] | – | – | 4.9e-08 | 52.2 | –
COc1cccc2c1nc(N[C@@H]1CCCCNC1=O)n1nc(-c3cnn(C4CCC4)c3)nc21 [Example 758, (3R)-3-{[2-(1-cyclobutyl-1H-pyrazol-4-yl)-7-methoxy[1,2,4]triazolo[1,5-c]quinazolin-5-yl]amino}azepan-2-one] | – | – | 1.35e-08 | 19.6 | –
O=C1NCCCC[C@@H]1Nc1nc2ccccc2c2nc(-c3ccccc3OC(F)(F)F)nn12 [Example 457, (3S)-3-({2-[2-(trifluoromethoxy)phenyl][1,2,4]triazolo[1,5-c]quinazolin-5-yl}amino)azepan-2-one] | – | – | 9.89e-07 | 78.3 | –
CCn1cc(-c2nc3c4cccc(S(C)(=O)=O)c4nc(N[C@@H]4CCCCNC4=O)n3n2)c(C)n1 [Example 847, (3R)-3-{[2-(1-ethyl-3-methyl-1H-pyrazol-4-yl)-7-(methanesulfonyl)[1,2,4]triazolo[1,5-c]quinazolin-5-yl]amino}azepan-2-one] | 3.02e-09 | 60.1 | – | – | –
CCNC(=O)C(CC)Nc1nc2ccccc2c2nc(-c3ccccc3OC(F)(F)F)nn12 (single isomer, unassigned) [Example 663, N-ethyl-2-({2-[2-(trifluoromethoxy)phenyl][1,2,4]triazolo[1,5-c]quinazolin-5-yl}amino)butanamide] | – | – | > 2e-05 | 317 | –
Cc1c(-c2nc3c4ccccc4nc(N[C@@H]4CCCCNC4=O)n3n2)cnn1C [Example 68, (3R)-3-{[2-(1,5-dimethyl-1H-pyrazol-4-yl)[1,2,4]triazolo[1,5-c]quinazolin-5-yl]amino}azepan-2-one] | – | – | 1.03e-08 | – | 8.57

More lines, main results first:

IC50 (AHR [1]; firefly luciferase reporter) [M] | IC50 (AHR [2]; [3]) [nM] | IC50 (AHR [1]) [M] | IC50 (AHR [2]; [4]) [nM] | SMILES | IC50 (AHR [2]; read-out: AHR Antagonism Mouse IC50, mouse Hepa 1c1c7 cells, 200 μM kynurenic acid, 20 hours) [nM]
– | – | 2.24e-08 | 135 | COc1ccc(-c2nc3c4cccc(C5(C(F)(F)F)CC5)c4nc(N[C@@H]4CCCCNC4=O)n3n2)cc1 [Example 398, (3R)-3-({2-(4-methoxyphenyl)-7-[1-(trifluoromethyl)cyclopropyl][1,2,4]triazolo[1,5-c]quinazolin-5-yl}amino)azepan-2-one] | –
– | – | 4.98e-08 | 2.99 | CSc1ccccc1-c1nc2c3ccccc3nc(N[C@@H]3CCCCNC3=O)n2n1 [Example 478, (3R)-3-({2-[2-(methylsulfanyl)phenyl][1,2,4]triazolo[1,5-c]quinazolin-5-yl}amino)azepan-2-one] | –
9.15e-10 | 4.06 | – | – | COCc1cccc2c1nc(N[C@@H]1CCCCNC1=O)n1nc(-c3ccc(OC)cc3)nc21 [Example 1003, (3R)-3-{[7-(methoxymethyl)-2-(4-methoxyphenyl)[1,2,4]triazolo[1,5-c]quinazolin-5-yl]amino}azepan-2-one] | –
1.86e-09 | 4.12 | – | – | COc1ccc(-c2nc3c4c(CO)cccc4nc(N[C@@H]4CCCCNC4=O)n3n2)cc1 [Example 862, (3R)-3-{[10-(hydroxymethyl)-2-(4-methoxyphenyl)[1,2,4]triazolo[1,5-c]quinazolin-5-yl]amino}azepan-2-one] | –
– | – | 6.38e-07 | 514 | CS(=O)(=O)c1ccc(-c2nc3c4ccccc4nc(N[C@@H]4CCNC4=O)n3n2)cc1 [Example 373, (3R)-3-({2-[4-(methanesulfonyl)phenyl][1,2,4]triazolo[1,5-c]quinazolin-5-yl}amino)pyrrolidin-2-one] | –
– | – | 4.82e-08 | 4.57 | COc1cccc(-c2nc3c4ccccc4nc(N[C@H]4CCCCNC4=O)n3n2)c1 [Example 76, (3S)-3-{[2-(3-methoxyphenyl)[1,2,4]triazolo[1,5-c]quinazolin-5-yl]amino}azepan-2-one] | –
– | – | 8.51e-06 | 434 | COc1cscc1-c1nc2c3ccccc3nc(N[C@H]3CCCCNC3=O)n2n1 [Example 336, (3S)-3-{[2-(4-methoxythiophen-3-yl)[1,2,4]triazolo[1,5-c]quinazolin-5-yl]amino}azepan-2-one] | –
